Results published in patent US12527788B2, “Defining RNA-small molecule affinity landscapes enables design of a small molecule inhibitor of an oncogenic non-coding RNA” (University of Florida Research Foundation, Incorporated, priority 2017, dated 2026).
pKd: −log10 of the molar value.

Key:
[1] = tested on: 33 mature miRNAs with potential binding sites for 4; assay: Profiling of mature miRNAs with potential binding sites in DU145 cells; format: cell-based, human
Excerpt: We further probed the selectivity of 4 by studying its effect on levels of other mature miRNAs (FIG. 8C) and on pre-miR-17, -18a and -20a. We identified miRNAs with potential binding sites for 4, as determined by HiT-StARTS, using a database of RNA folds in the human miRNA transcriptome,^38 including the 5′G_U/3′CUA bulge common to the Dicer processing sites in miR-17, -18a and -20a (n=33). The potential binding sites for 4 can occur anywhere in the miRNA; that is, they were not confined to Drosha or Dicer processing sites. Other miRNAs that contain the 5′G_U/3′CUA motif have a much lower expression level than miR-17, miR-18a, and miR-20. Studying these RNAs could allow assessment of influence of expression level on compound potency and selectivity, an important consideration in RNA targeting that has largely gone unaddressed.
Collectively, it appears that it is easier to target and inhibit the biogenesis of highly expressed miRNAs than the ones that are of lower expression. Such effects have been well-documented in the protein-targeting community but until now have not been studied in RNA targeting endeavors.
Cell Culture: DU145 cells were cultured in growth medium (Roswell Park Memorial Institute medium (RPMI) supplemented with 10% fetal bovine serum (FBS)) at 37° C. and 5% CO2 […]

miR-92a = assay: RT-qPCR of mature miRNA levels in DU145 cells; format: cell-based, human
Procedure: (§1) In particular, the mature levels of each miRNA in the cluster were studied by RT-qPCR. In agreement with our in vitro Dicer processing studies (FIG. 8A and Figures S-58-S-62), 4 decreases the amount of mature miR-17, -18a, and -20a at low micromolar concentrations with an IC50 of ˜10 µM, but has no effect on miR-19a, -19b, and -92a (FIG. 8B).
(§2) Cell Culture: DU145 cells were cultured in growth medium (Roswell Park Memorial Institute medium (RPMI) supplemented with 10% fetal bovine serum (FBS)) at 37° C. and 5% CO2
(§3) Total RNA was extracted from cells using a Quick-RNA Miniprep Kit (Zymo Research) per the manufacturer's protocol. Approximately 200 ng of total RNA was used in reverse transcription (RT) reactions, which were completed using a miScript II RT kit (Qiagen) per the manufacturer's protocol. RT-qPCR was performed on a 7900HT Fast Real Time PCR System (Applied Biosystem) using power SYBR Green Master Mix (Applied Biosystems). All primer sets were purchased from Integrated DNA Technologies, Inc. (IDT) or Eurofins (Table S1). The expression levels of mature miRNAs were normalized to U6 small nuclear RNA or 18s rRNA.

miR-19a = assay: RT-qPCR of mature miRNA levels in DU145 cells; format: cell-based, human
Procedure: as §1, §2, §3

[2] = target: RNAC (U bulge mutated to an AU pair); assay: Fluorescence-based binding affinity measurement
Procedure: FIG. 7: Secondary structures of the nucleic acids to which the binding of small molecule 4 was assessed. […] RNA1 contains the U bulge present in the Dicer processing site common to miR-17, -18a and -20a. RNA2 contains the A bulge that is present in miR-18a. RNA3 contains the G bulge present in miR-17 and miR-20a. Binding affinities (Kd's) are indicated in parentheses and are reported in micromolar.
Mutation of the U bulge to an AU pair (RNAC) eliminates binding (Kd>100 μM).
Binding Affinity Measurements: An in solution, fluorescence-based assay was used to determine binding affinities by monitoring the change in fluorescence intensity of 1-FL (or 2-FL/3-FL/4-FL) as a function of RNA concentration as described previously.^18 Briefly, the RNA of interest was folded in 1× Folding Buffer (8 mM Na2HPO4, pH 7.0, 185 mM NaCl and 1 mM EDTA) by heating at 60° C. for 5 min followed by slowly cooling to room temperature on the bench top. Then, the FL-conjugated compound was added into the RNA solution to a final concentration of 100 nM. Serial dilutions were then completed using 1× Folding Buffer supplemented with 100 nM FL-conjugated compound. The solutions were incubated at room temperature for 30 min and then transferred to a well of a black 384-well plate. […]

[3] = tested on: DU145 prostate cancer cells; assay: Apoptosis by Annexin V/PI staining; format: cell-based; conditions: 10 μM and 20 μM
Procedure: A, Effect of 4 on STK4 protein expression, a direct target of miR-18a. B, Ability of 4 (10 μM and 20 μM) and a miR-18a antagomir (50 nM) to trigger apoptosis. *, p<0.05 and **, p<0.01, as determined by a two-tailed Student t-test.
Although the most common route to modulate protein expression is to inhibit them directly, here we show it is possible to increase protein expression by targeting non-coding RNAs that repress their production.

pKd [2]: < 4.00
Structure (SMILES): CN1CCN(c2ccc(-c3ccc4nc(-c5cc(C(C)(C)C)c(OCCCC(=O)NCCCN=[N+]=[N-])c(C(C)(C)C)c5)[nH]c4c3)cc2)CC1 [Compound 4]
Effect on levels of 33 other mature miRNAs [1]: no statistically significant effect
Effect on mature miRNA level (miR-92a): no effect
Effect on mature miRNA level (miR-19a): no effect
Apoptosis [3]: triggers apoptosis
